Reference: PubChem BioAssay AID250 (DTP/NCI, 2004)
“And” between values parts separate entries of the source, which are not always exact repeats. Equal values may be shown once. Toxic doses and inconclusive results are not listed. Square brackets hold non-standard residues; d marks the D form. Peptide text beside a SMILES is read from it. Ac5c = NC1(C(=O)O)CCCC1

System: BDF1 mice, L1210 leukemia sc, survival T/C
Experiment: NCI In Vivo Anticancer Drug Screen. Data for tumor model L1210 Leukemia (subcutaneous) in B6D2F1 (BDF1) mice
Details: higher = longer survival
How it was run: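 Read-out: T/C ratio, i.e. survival or tumor size in treated mice over that in vehicle-treated controls, from mice bearing transplantable tumors.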

[1] = endpoint: median survival time, dose: 180.0 mg/kg/injection, schedule: Q01DX Z (sc), vehicle: methylcellulose (MC)
[2] = endpoint: median survival time, dose: 300.0 mg/kg/injection, schedule: Q01DX Z (sc), vehicle: methylcellulose (MC)
[3] = endpoint: median survival time, dose: 500.0 mg/kg/injection, schedule: Q01DX Z (sc), vehicle: methylcellulose (MC)
[4] = endpoint: median survival time, dose: 8.0 mg/kg/injection, schedule: Q01DX009 (ip), vehicle: water
[5] = endpoint: median survival time, dose: 16.0 mg/kg/injection, schedule: Q01DX009 (ip), vehicle: water
[6] = endpoint: median survival time, dose: 32.0 mg/kg/injection, schedule: Q01DX009 (ip), vehicle: water
[7] = endpoint: median survival time, dose: 512.0 mg/kg/injection, schedule: Q01DX009 (ip), vehicle: water
[8] = endpoint: median survival time, dose: 65.0 mg/kg/injection, schedule: Q01DX Z (sc), vehicle: methylcellulose (MC)
[9] = endpoint: median survival time, dose: 108.0 mg/kg/injection, schedule: Q01DX Z (sc), vehicle: methylcellulose (MC)

With `Nc1nc(SCc2ccccc2)c2[nH]cnc2n1` the T/C [1] was 122 % of control, the T/C [2] was 122 % of control and the T/C [3] was 111 % of control.

With `N=[N+]=CC(=O)CCC(NC(=O)C(CCC(=O)C=[N+]=N)NC(=O)CCC(N)C(=O)O)C(=O)O` (stereo not given) the T/C (endpoint: median survival time, dose: 0.1 mg/kg/injection, schedule: Q01DX009 (ip), vehicle: water) was 94 % of control, the T/C (endpoint: median survival time, dose: 0.1 mg/kg/injection, schedule: Q01DX009 (sc), vehicle: water) was 95 % of control and 106 % of control and the T/C (endpoint: median survival time, dose: 0.2 mg/kg/injection, schedule: Q01DX009 (ip), vehicle: water) was 94 % of control. The T/C (endpoint: median survival time, dose: 0.2 mg/kg/injection, schedule: Q01DX009 (sc), vehicle: water) was 102 % of control, the T/C (endpoint: median survival time, dose: 0.4 mg/kg/injection, schedule: Q01DX009 (ip), vehicle: water) was 95 % of control and the T/C (endpoint: median survival time, dose: 0.4 mg/kg/injection, schedule: Q01DX009 (sc), vehicle: water) was 103 % of control. The T/C (endpoint: median survival time, dose: 0.8 mg/kg/injection, schedule: Q01DX009 (ip), vehicle: water) was 95 % of control, the T/C (endpoint: median survival time, dose: 0.8 mg/kg/injection, schedule: Q01DX009 (sc), vehicle: water) was 101 % of control and 102 % of control and the T/C (endpoint: median survival time, dose: 1.6 mg/kg/injection, schedule: Q01DX009 (ip), vehicle: water) was 91 % of control. The T/C (endpoint: median survival time, dose: 1.6 mg/kg/injection, schedule: Q01DX009 (sc), vehicle: water) was 103 % of control and 106 % of control.

In the case of `S=P(N1CCCCCC1)(N1CC1)N1CC1`, the T/C (endpoint: median survival time, dose: 4.7 mg/kg/injection, schedule: Q01DX Z (sc), vehicle: saline) is reported as 100 % of control, the T/C (endpoint: median survival time, dose: 7.8 mg/kg/injection, schedule: Q01DX Z (sc), vehicle: saline) is reported as 111 % of control and the T/C (endpoint: median survival time, dose: 8.4 mg/kg/injection, schedule: Q01DX Z (sc), vehicle: saline) is reported as 111 % of control. The T/C (endpoint: median survival time, dose: 13.0 mg/kg/injection, schedule: Q01DX Z (sc), vehicle: saline) was 100 % of control, the T/C (endpoint: median survival time, dose: 14.0 mg/kg/injection, schedule: Q01DX Z (sc), vehicle: saline) was 111 % of control and the T/C (endpoint: median survival time, dose: 21.6 mg/kg/injection, schedule: Q01DX Z (sc), vehicle: saline) was 111 % of control. The T/C (endpoint: median survival time, dose: 23.0 mg/kg/injection, schedule: Q01DX Z (sc), vehicle: saline) was 111 % of control, the T/C (endpoint: median survival time, dose: 36.0 mg/kg/injection, schedule: Q01DX Z (sc), vehicle: saline) was 116 % of control and the T/C (endpoint: median survival time, dose: 39.0 mg/kg/injection, schedule: Q01DX Z (sc), vehicle: saline) was 122 % of control. The T/C (endpoint: median survival time, dose: 60.0 mg/kg/injection, schedule: Q01DX Z (sc), vehicle: saline) was 166 % of control, the T/C (endpoint: median survival time, dose: 65.0 mg/kg/injection, schedule: Q01DX Z (sc), vehicle: saline) was 116 % of control and the T/C (endpoint: median survival time, dose: 100.0 mg/kg/injection, schedule: Q01DX Z (sc), vehicle: saline) was 161 % of control. For the same compound, the T/C (endpoint: median survival time, dose: 108.0 mg/kg/injection, schedule: Q01DX Z (sc), vehicle: saline) was 155 % of control.

With `C[C@@H](CN1CC(=O)NC(=O)C1)N1CC(=O)NC(=O)C1` the T/C [4] was 103 % of control, the T/C [5] was 105 % of control and 115 % of control and the T/C [6] was 114 % of control. The T/C (endpoint: median survival time, dose: 128.0 mg/kg/injection, schedule: Q01DX009 (ip), vehicle: water) was 150 % of control and the T/C [7] was 121 % of control.

`NS(=O)(=O)c1ncnc2nc[nH]c12` was tested, and the T/C [8] was 100 % of control and the T/C [9] was 105 % of control.

`Cn1c(N)nc2nc[nH]c2c1=S` was tested, and the T/C [8] was 100 % of control, the T/C [9] was 100 % of control and the T/C [1] was 100 % of control and 105 % of control. For the same compound, the T/C [2] was 100 % of control, the T/C [3] was 100 % of control and 105 % of control and the T/C (endpoint: median survival time, dose: 833.0 mg/kg/injection, schedule: Q01DX Z (sc), vehicle: methylcellulose (MC)) was 110 % of control.

In the case of `Nc1nc(N)c2cc(CNc3ccc(C(=O)NC(CC(=O)O)C(=O)O)cc3)ccc2n1` (stereo not given), the T/C (endpoint: median survival time, dose: 0.78 mg/kg/injection, schedule: Q01DX Z (sc), vehicle: saline) is reported as 216 % of control, the T/C (endpoint: median survival time, dose: 1.56 mg/kg/injection, schedule: Q01DX Z (sc), vehicle: saline) is reported as 200 % of control and the T/C (endpoint: median survival time, dose: 3.12 mg/kg/injection, schedule: Q01DX Z (sc), vehicle: saline) is reported as 150 % of control. For the same compound, the T/C (endpoint: median survival time, dose: 6.25 mg/kg/injection, schedule: Q01DX Z (sc), vehicle: saline) was 122 % of control, the T/C (endpoint: median survival time, dose: 6.3 mg/kg/injection, schedule: Q01DX001 (sc), vehicle: saline) was 122 % of control and the T/C (endpoint: median survival time, dose: 12.5 mg/kg/injection, schedule: Q01DX001 (sc), vehicle: saline) was 116 % of control. The T/C (endpoint: median survival time, dose: 12.5 mg/kg/injection, schedule: Q01DX Z (sc), vehicle: saline) was 111 % of control, the T/C (endpoint: median survival time, dose: 25.0 mg/kg/injection, schedule: Q01DX Z (sc), vehicle: saline) was 100 % of control and the T/C (endpoint: median survival time, dose: 50.0 mg/kg/injection, schedule: Q01DX001 (sc), vehicle: saline) was 166 % of control.

In the case of `O=c1[nH]cc(N(CCCl)CCCl)c(=O)[nH]1`, the T/C (endpoint: median survival time, dose: 0.23 mg/kg/injection, schedule: Q01DX Z (sc), vehicle: other) is reported as 100 % of control, the T/C (endpoint: median survival time, dose: 0.39 mg/kg/injection, schedule: Q01DX Z (sc), vehicle: other) is reported as 100 % of control and the T/C (endpoint: median survival time, dose: 0.65 mg/kg/injection, schedule: Q01DX Z (sc), vehicle: other) is reported as 100 % of control. The T/C (endpoint: median survival time, dose: 1.08 mg/kg/injection, schedule: Q01DX Z (sc), vehicle: other) was 100 % of control, the T/C (endpoint: median survival time, dose: 1.8 mg/kg/injection, schedule: Q01DX Z (sc), vehicle: other) was 105 % of control and 110 % of control and the T/C (endpoint: median survival time, dose: 3.0 mg/kg/injection, schedule: Q01DX Z (sc), vehicle: other) was 110 % of control and 115 % of control. For the same compound, the T/C (endpoint: median survival time, dose: 5.0 mg/kg/injection, schedule: Q01DX Z (sc), vehicle: other) was 150 % of control and 160 % of control, the T/C (endpoint: median survival time, dose: 8.4 mg/kg/injection, schedule: Q01DX Z (sc), vehicle: other) was 100 % of control and 120 % of control and the T/C (endpoint: median survival time, dose: 14.0 mg/kg/injection, schedule: Q01DX Z (sc), vehicle: other) was 120 % of control.

For `O=c1[nH]cnc2[nH]ncc12`, the T/C (endpoint: mean survival time, dose: 20.0 mg/kg/injection, schedule: Q01DX001 (ip), vehicle: saline) was 97 % of control, the T/C (endpoint: mean survival time, dose: 30.0 mg/kg/injection, schedule: Q01DX001 (ip), vehicle: saline) was 101 % of control and the T/C (endpoint: mean survival time, dose: 40.0 mg/kg/injection, schedule: Q01DX001 (ip), vehicle: saline) was 98 % of control. The T/C (endpoint: mean survival time, dose: 80.0 mg/kg/injection, schedule: Q01DX001 (ip), vehicle: saline) was 98 % of control, the T/C (endpoint: median survival time, dose: 10.0 mg/kg/injection, schedule: Q01DX009 (ip), vehicle: saline) was 99 % of control (2×) and 100 % of control and the T/C (endpoint: median survival time, dose: 20.0 mg/kg/injection, schedule: Q01DX001 (ip), vehicle: saline) was 90 % of control. For the same compound, the T/C (endpoint: median survival time, dose: 20.0 mg/kg/injection, schedule: Q01DX009 (ip), vehicle: saline) was 100 % of control and 101 % of control (2×), the T/C (endpoint: median survival time, dose: 30.0 mg/kg/injection, schedule: Q01DX001 (ip), vehicle: saline) was 100 % of control and the T/C (endpoint: median survival time, dose: 40.0 mg/kg/injection, schedule: Q01DX001 (ip), vehicle: saline) was 100 % of control. For the same compound, the T/C (endpoint: median survival time, dose: 40.0 mg/kg/injection, schedule: Q01DX009 (ip), vehicle: saline) was 99 % of control (2×) and 100 % of control and the T/C (endpoint: median survival time, dose: 80.0 mg/kg/injection, schedule: Q01DX001 (ip), vehicle: saline) was 100 % of control.

With `NCC(=O)NC1(C(=O)O)CCCC1` (H-Gly-[Ac5c]-OH) the T/C (endpoint: median survival time, dose: 55.0 mg/kg/injection, schedule: Q01DX Z (sc), vehicle: water) was 105 % of control, the T/C (endpoint: median survival time, dose: 91.0 mg/kg/injection, schedule: Q01DX Z (sc), vehicle: water) was 105 % of control and the T/C (endpoint: median survival time, dose: 152.0 mg/kg/injection, schedule: Q01DX Z (sc), vehicle: water) was 105 % of control. The T/C (endpoint: median survival time, dose: 253.0 mg/kg/injection, schedule: Q01DX Z (sc), vehicle: water) was 157 % of control.

For `Nc1nc(N)c2nc(CNc3ccc(C(=O)NC(CCC(=O)O)C(=O)O)cc3)cnc2n1` (stereo not given), the T/C (endpoint: median survival time, dose: 0.04 mg/kg/injection, schedule: Q01DX Z (sc), vehicle: other) was 100 % of control, the T/C (endpoint: median survival time, dose: 0.05 mg/kg/injection, schedule: Q01DX Z (sc), vehicle: other) was 100 % of control and the T/C (endpoint: median survival time, dose: 0.08 mg/kg/injection, schedule: Q01DX Z (sc), vehicle: other) was 100 % of control. For the same compound, the T/C (endpoint: median survival time, dose: 0.4 mg/kg/injection, schedule: Q01DX Z (sc), vehicle: other) was 120 % of control, the T/C (endpoint: median survival time, dose: 0.6 mg/kg/injection, schedule: Q01DX Z (sc), vehicle: other) was 120 % of control and the T/C (endpoint: median survival time, dose: 0.89 mg/kg/injection, schedule: Q01DX Z (sc), vehicle: other) was 120 % of control. The T/C (endpoint: median survival time, dose: 1.33 mg/kg/injection, schedule: Q01DX Z (sc), vehicle: other) was 110 % of control and the T/C (endpoint: median survival time, dose: 2.0 mg/kg/injection, schedule: Q01DX Z (sc), vehicle: other) was 120 % of control.

In the case of `C[C@H](CN1CC(=O)NC(=O)C1)N1CC(=O)NC(=O)C1`, the T/C [4] is reported as 104 % of control, the T/C [5] is reported as 119 % of control and the T/C [6] is reported as 119 % of control and 124 % of control. For the same compound, the T/C (endpoint: median survival time, dose: 256.0 mg/kg/injection, schedule: Q01DX009 (ip), vehicle: water) was 118 % of control and the T/C [7] was 113 % of control.
